US11439618B2, “Compositions and methods for lowering triglycerides” (Amarin Pharmaceuticals Ireland Limited, priority 2009, dated 2022)

Assay: Essential fatty acid (EFA) parameters in plasma and RBC, gas chromatography of fatty acid methyl esters
Assay type: in vivo, human
Description: Blood samples (10 mL) were collected at Visit 1 (screening) and at Visits 4, 5 and 6. Analysis was performed by MSR Lipid Analysis, Scottish Crop Research Institute, Dundee, UK. The screening sample acted as baseline for the EFA measurements. Lipid was extracted from plasma, serum and RBC suspensions and converted into fatty acid methyl esters which were analyzed by gas chromatography to give fatty acid profiles as micrograms fatty acid per gram of sample (μgFA/g) and normalized area percent.
RBC and plasma EFA data were collected at baseline, Day 14, 28 and 42 and summarized by visit for each treatment group. Change from baseline and percent change from baseline were also summarized. ANCOVA comparison of ethyl-EPA dose groups and ethyl-EPA versus placebo was performed.
Notable changes for these parameters occurred in the ethyl-EPA treatment groups at Days 14, 28 and 42 compared to placebo.

[1] = plasma, 1 g daily group, Baseline
[2] = plasma, 2 g daily group, Baseline
[3] = plasma, 4 g daily group, Baseline

## CC/C=C\C/C=C\C/C=C\C/C=C\C/C=C\CCCC(=O)OCC [Ethyl-EPA, all-cis eicosa-5,8,11,14,17-pentaenoic acid ethyl ester]
Plasma and RBC, to Day 42, 1, 2 and 4 g
  EPA, DPAn-3 and EPA/AA ratio values, change from baseline: increased substantially from baseline
Plasma and RBC, to day 42, 1, 2 and 4 g
  AA, DHA and DGLA values, change from baseline: decreased substantially from baseline
[1]
  AA Mean at Baseline: 202.5 µg/g
  DGLA Mean at Baseline: 51.2 µg/g
  DHA Mean at Baseline: 73.1 µg/g
  DPAn-3 Mean at Baseline: 21.1 µg/g
  EPA Mean at Baseline: 48.3 µg/g
  EPA/AA Mean (SD) at Baseline: 0.2 (0.14)
plasma, 1 g daily, Day 14
  AA Mean change from Baseline: -9.7 µg/g
  DGLA Mean change from Baseline: -10.4 µg/g
  DHA Mean change from Baseline: -6.4 µg/g
  DPAn-3 Mean change from Baseline: 7.5 µg/g
  EPA Mean change from Baseline: 61.2 µg/g
  EPA/AA Mean (SD) change from Baseline: 0.3 (0.4)
plasma, 1 g daily, Day 28
  AA Mean change from Baseline: -11.3 µg/g
  DGLA Mean change from Baseline: -10.6 µg/g
  DHA Mean change from Baseline: -6.6 µg/g
  DPAn-3 Mean change from Baseline: 8.9 µg/g
  EPA Mean change from Baseline: 60.3 µg/g
  EPA/AA Mean (SD) change from Baseline: 0.3 (0.20)
plasma, 1 g daily, Day 42
  AA Mean change from Baseline: -8.7 µg/g
  DGLA Mean change from Baseline: -9.4 µg/g
  DHA Mean change from Baseline: -5.4 µg/g
  DPAn-3 Mean change from Baseline: 11.3 µg/g
  EPA Mean change from Baseline: 62.0 µg/g
  EPA/AA Mean (SD) change from Baseline: 0.3 (0.24)
plasma, 1 g versus 4 g
  AA LS Mean, 1 or 2 g versus 4 g: 4.2 µg/g
  DGLA LS Mean, 1 or 2 g versus 4 g: 3.7 µg/g
  DHA LS Mean, 1 or 2 g versus 4 g: -0.8 µg/g
  DPAn-3 LS Mean, 1 or 2 g versus 4 g: -15.1 µg/g
  EPA LS Mean, 1 or 2 g versus 4 g: -111.8 µg/g
  EPA/AA LS Mean, 1 or 2 g versus 4 g: −0.66
[2]
  AA Mean at Baseline: 227.3 µg/g
  DGLA Mean at Baseline: 53.5 µg/g
  DHA Mean at Baseline: 75.1 µg/g
  DPAn-3 Mean at Baseline: 19.7 µg/g
  EPA Mean at Baseline: 4.49 µg/g
  EPA/AA Mean at Baseline: 0.2
plasma, 2 g daily, Day 14
  AA Mean change from Baseline: -13.9 µg/g
  DGLA Mean change from Baseline: -14.1 µg/g
  DHA Mean change from Baseline: -5.4 µg/g
  DPAn-3 Mean change from Baseline: 17.4 µg/g
  EPA Mean change from Baseline: 124.6 µg/g
  EPA/AA Mean change from Baseline: 0.6
plasma, 2 g daily, Day 28
  AA Mean change from Baseline: 21.6 µg/g
  DGLA Mean change from Baseline: -16.2 µg/g
  DHA Mean change from Baseline: -8.1 µg/g
  DPAn-3 Mean change from Baseline: 19.4 µg/g
  EPA Mean change from Baseline: 142.2 µg/g
  EPA/AA Mean change from Baseline: 0.8
plasma, 2 g daily, Day 42
  AA Mean change from Baseline: -27.3 µg/g
  DGLA Mean change from Baseline: -17.3 µg/g
  DHA Mean change from Baseline: -6.0 µg/g
  DPAn-3 Mean change from Baseline: 19.3 µg/g
  EPA Mean change from Baseline: 133.4 µg/g
  EPA/AA Mean change from Baseline: 0.7
plasma, 2 g versus 4 g
  AA LS Mean, 1 or 2 g versus 4 g: 15.6 µg/g
  DGLA LS Mean, 1 or 2 g versus 4 g: 2.5 µg/g
  DHA LS Mean, 1 or 2 g versus 4 g: 1.5 µg/g
  DPAn-3 LS Mean, 1 or 2 g versus 4 g: -9.5 µg/g
  EPA LS Mean, 1 or 2 g versus 4 g: -60.9 µg/g
  EPA/AA LS Mean, 1 or 2 g versus 4 g: −0.41
[3]
  AA Mean (SD) at Baseline: 220.9 (42.80) μg/g
  DGLA Mean at Baseline: 57.1 µg/g
  DHA Mean at Baseline: 78.8 µg/g
  DPAn-3 Mean at Baseline: 21.7 µg/g
  EPA Mean at Baseline: 49.1 µg/g
  EPA/AA Mean (SD) at Baseline: 0.2 (0.07)
plasma, 4 g daily, Day 14
  AA Mean (SD) change from Baseline: −27.2 (28.89) μg/g
  DGLA Mean change from Baseline: -22.9 µg/g
  DHA Mean change from Baseline: -10.3 µg/g
  DPAn-3 Mean change from Baseline: 24.5 µg/g
  EPA Mean change from Baseline: 207.7 µg/g
  EPA/AA Mean (SD) change from Baseline: 1.1 (0.28)
plasma, 4 g daily, Day 28
  AA Mean (SD) change from Baseline: −43.7 (32.24) μg/g
  DGLA Mean change from Baseline: -24.2 µg/g
  DHA Mean change from Baseline: -13.5 µg/g
  DPAn-3 Mean change from Baseline: 29.7 µg/g
  EPA Mean change from Baseline: 215.2 µg/g
  EPA/AA Mean (SD) change from Baseline: 1.3 (0.42)
plasma, 4 g daily, Day 42
  AA Mean (SD) change from Baseline: −48.3 (22.20) μg/g
  DGLA Mean change from Baseline: -22.5 µg/g
  DHA Mean change from Baseline: -13.8 µg/g
  DPAn-3 Mean change from Baseline: 32.0 µg/g
  EPA Mean change from Baseline: 204.6 µg/g
  EPA/AA Mean (SD) change from Baseline: 1.3 (0.45)
